This note sets out measurements from patent US4528190A, “GRF Analogs IV” (The Salk Institute For Biological Studies, priority 1984, dated 1985).

This assay deals with cells of rat pituitary glands. The assay is described as follows: in vitro GH release from cultured rat pituitary cells, compared side by side with synthetic hpGRF(1-40)-OH as standard. Conditions: GH release relative to standard hGRF(1-40)-OH = 100%; equimolar concentrations; incubation 3 to 4 hours; immunoreactive GH by radioimmunoassay. In kind it is cell-based. The procedure:
To determine the relative effectiveness of certain representative synthetic peptides to promote the release of growth hormone, in vitro assays are carried out using synthetic hpGRF(1-40)-OH as a standard in side-by-side comparison with equimolar concentrations of the representative analogs which have been synthesized. Cultures are used which include cells of rat pituitary glands removed some three to five days previously. Such cultures are considered optimal for the secretion of growth hormone and are used for the comparative testing, in the general manner described in Vale et al. Endocrinology, 91, 562-572 (1972) and as more particularly described in Vale et al. Endocrinology, 112, 1553-1555 (1983). Incubation with the substance to be tested is carried out for 3 to 4 hours, and aliquots of the culture medium are removed and processed to measure their contents in immunoreactive GH(ir GH) by a well-characterized radioimmunoassay.

Square brackets hold non-standard residues; d marks the D form. Ends that are not written are not given here. Peptide text beside a SMILES is read from it. Nle = CCCC[C@H](N)C(=O)O

Compound `CCCC[C@H](NC(=O)[C@@H](NC(=O)[C@H](CCC(=O)O)NC(=O)[C@H](Cc1c[nH]cn1)NC(=O)[C@H](CC(C)C)NC(=O)[C@H](CC(C)C)NC(=O)[C@H](CCCCN)NC(=O)[C@H](CCCNC(=N)N)NC(=O)[C@H](C)NC(=O)[C@H](Cc1ccc(O)cc1)NC(=O)[C@H](CC(C)C)NC(=O)[C@H](CCC(N)=O)NC(=O)CNC(=O)[C@@H](CC(C)C)NC(=O)[C@@H](NC(=O)[C@H](CCCNC(=N)N)NC(=O)[C@H](CCCNC(=N)N)NC(=O)[C@H](Cc1ccc(O)cc1)NC(=O)[C@H](CO)NC(=O)[C@H](CO)NC(=O)[C@@H](NC(=O)[C@H](Cc1ccccc1)NC(=O)[C@@H](NC(=O)[C@H](C)NC(=O)[C@H](CC(=O)O)NC(=O)[C@H](C)NC(=O)[C@@H](N)Cc1c[nH]cn1)[C@@H](C)CC)[C@@H](C)O)[C@@H](C)CC)[C@@H](C)CC)C(=O)N[C@@H](CC(N)=O)C(=O)N[C@@H](CCCNC(=N)N)C(N)=O` [[D-Leu^14, Nle^27]-rGRF(1-29)-NH2] (H-HADAIFTSSYRRI[dL]GQLYARKLLHEI[Nle]NR-NH2) displayed a Comparison % of 120%. Compound `CCCC[C@H](NC(=O)[C@@H](NC(=O)[C@H](CCC(=O)O)NC(=O)[C@H](Cc1c[nH]cn1)NC(=O)[C@H](CC(C)C)NC(=O)[C@H](CC(C)C)NC(=O)[C@H](CCCCN)NC(=O)[C@H](CCCNC(=N)N)NC(=O)[C@H](C)NC(=O)[C@H](Cc1ccc(O)cc1)NC(=O)[C@H](CC(C)C)NC(=O)[C@H](CCC(N)=O)NC(=O)CNC(=O)[C@H](CC(C)C)NC(=O)[C@@H](NC(=O)[C@H](CCCNC(=N)N)NC(=O)[C@H](CCCNC(=N)N)NC(=O)[C@H](Cc1ccc(O)cc1)NC(=O)[C@H](CO)NC(=O)[C@H](CO)NC(=O)[C@@H](NC(=O)[C@H](Cc1ccccc1)NC(=O)[C@@H](NC(=O)[C@H](C)NC(=O)[C@H](CC(=O)O)NC(=O)[C@H](C)NC(=O)[C@@H](N)Cc1c[nH]cn1)[C@@H](C)CC)[C@@H](C)O)[C@@H](C)CC)[C@@H](C)CC)C(=O)N[C@@H](CC(N)=O)C(=O)N[C@H](CCCNC(=N)N)C(N)=O` [[Nle^27, D-Arg^29]-rGRF(1-29)-NH2] (H-HADAIFTSSYRRILGQLYARKLLHEI[Nle]N[dR]-NH2) registered a Comparison % of 386%. In turn, “hGRF(1-40)-OH (YADAIFTNSYRKVLGQLSARKLLQDIMSRQQGESNQERGA-OH; UniProt P01286 32-71, looked up, fragment) [synthetic human pancreatic (tumor) GH releasing factor, residues 1-40, free acid; standard for the tests, reference compound]” gave a Comparison % of 100%.
